Test results from patent US20250304563A1, “ACTIVATORS OF EFFECTOR T CELLS” (Orum Therapeutics, Inc., priority 2022, published 2025).

These molecules were tested against Cbl-b (36-427 aa truncated form, N-terminus Avi-tag) (Homo sapiens (Human), UniProt Q13191) (assay: Cbl-b binding: TR-FRET displacement of BODIPY-FL probe).
Sequence of Cbl-b (36-427 aa truncated form, N-terminus Avi-tag) (Q13191 36-427): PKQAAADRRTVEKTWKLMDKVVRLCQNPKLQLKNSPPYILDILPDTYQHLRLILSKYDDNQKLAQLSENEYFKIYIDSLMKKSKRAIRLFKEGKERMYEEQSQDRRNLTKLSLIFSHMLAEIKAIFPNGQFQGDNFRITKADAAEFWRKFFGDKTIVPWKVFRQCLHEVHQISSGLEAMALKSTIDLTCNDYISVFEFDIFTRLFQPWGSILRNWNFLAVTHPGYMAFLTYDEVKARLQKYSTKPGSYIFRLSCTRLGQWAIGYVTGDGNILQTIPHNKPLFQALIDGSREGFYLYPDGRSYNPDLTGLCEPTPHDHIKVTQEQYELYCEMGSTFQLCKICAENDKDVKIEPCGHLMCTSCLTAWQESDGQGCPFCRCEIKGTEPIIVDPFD
Procedure: Compounds were assessed for binding activity to Cbl-b by their ability to compete with and displace a probe comprised of BODIPY-FL fluorophore conjugated to a Cbl-b inhibitor (see Example 54 in WO2020264398). In the assay, a 36-427 aa truncated form of Cbl-b with an N-terminus Avi-tag was incubated 20 mM HEPES pH 7.5, 150 mM NaCl, 0.01% Triton X-100, 0.1% BSA, 0.5 mM TCEP buffer with streptavidin-terbium (Cisbio). After one hour of incubation at room temperature, 1 uM each of fluorescent probe and compound were combined with the reaction mixture. Compounds with Cbl-b binding activity competitively displace the fluorophore tagged inhibitor thereby disrupting the FRET signal from the terbium-BODIPY-FL complex. The reaction mixtures were incubated for one additional hour at room temperature to allow for competition between inhibitor and candidate compounds to occur. The time resolved FRET (TR-FRET) signal was then read at 520/620 […] (excitation/emission) using a Spectramax M5e plate reader (Molecular Devices) to measure probe displacement. Compounds with Cbl-b binding activity had decreased FRET signal owing to disruption of the terbium-BODIPY-FL FRET complex. Standard methods in PRISM were used to calculate the compound IC50 values from the experimental data.
CSC(C)(C)CNc1cc(C2(Cc3nncn3C)COC2)cc(N2Cc3c(cc(CN4CCC[C@H](C)C4)cc3C(F)(F)F)C2=O)n1 [Compound 105, 2-(4-{3-[(4-methyl-1,2,4-triazol-3-yl)methyl]oxetan-3-yl}-6-{[2-methyl-2-(methylsulfanyl)propyl]amino}pyridin-2-yl)-6-{[(3S)-3-methylpiperidin-1-yl]methyl}-4-(trifluoromethyl)-3H-isoindol-1-one; formic acid] showed an IC50 of 100 to 1000 nM.
CC1CC(c2cc(NCCN=[N+]=[N-])nc(N3Cc4c(cc(CN5CCC[C@H](C)C5)cc4C(F)(F)F)C3=O)c2)(c2nncn2C)C1 (stereo partly drawn) [Compound 168, 2-{6-[(2-azidoethyl)amino]-4-[(1r,3s)-3-methyl-1-(4-methyl-1,2,4-triazol-3-yl)cyclobutyl]pyridin-2-yl}-6-{[(3S)-3-methylpiperidin-1-yl]methyl}-4-(trifluoromethyl)-3H-isoindol-1-one] gave an IC50 of 20 to 100 nM.
C[C@H]1CCCN(Cc2cc3c(c(C(F)(F)F)c2)CN(c2cc(C4(Cc5nncn5C)COC4)cc(N4CCN(C(=O)CN=[N+]=[N-])CC4)n2)C3=O)C1 [Compound 132, (S)-2-(6-(4-(2-azidoacetyl)piperazin-1-yl)-4-(3-((4-methyl-4H-1,2,4-triazol-3-yl)methyl)oxetan-3-yl)pyridin-2-yl)-6-((3-methylpiperidin-1-yl)methyl)-4-(trifluoromethyl)isoindolin-1-one] was tested, and the IC50 was 20 to 100 nM.
With C[C@H]1CCCN(Cc2cc3c(c(C(F)(F)F)c2)CN(c2cc(C4(Cc5nncn5C)COC4)cc(N4CCN(CC#N)CC4)n2)C3=O)C1 [Compound 128, (S)-2-(4-(4-(3-((4-methyl-4H-1,2,4-triazol-3-yl)methyl)oxetan-3-yl)-6-(6-((3-methylpiperidin-1-yl)methyl)-1-oxo-4-(trifluoromethyl)isoindolin-2-yl)pyridin-2-yl)piperazin-1-yl)acetonitrile] the IC50 was 20 to 100 nM.
C[C@H]1CCCN(Cc2cc3c(c(C(F)(F)F)c2)CN(c2cc(C4(Cc5nncn5C)COC4)cc(N4CCNCC4)n2)C3=O)C1 [Compound 140, (S)-2-(4-(3-((4-methyl-4H-1,2,4-triazol-3-yl)methyl)oxetan-3-yl)-6-(piperazin-1-yl)pyridin-2-yl)-6-((3-methylpiperidin-1-yl)methyl)-4-(trifluoromethyl)isoindolin-1-one; trifluoro acetic acid] gave an IC50 of 5.01 to 20 nM.
Molecule CCNc1cc([C@]2(c3nncn3C)C[C@H](C)C2)nc(N2Cc3c(cc(CN4CCC[C@H](C)C4)cc3C(F)(F)F)C2=O)n1 [Compound 114B, 2-[4-(ethylamino)-6-[(1r,3S)-3-methyl-1-(4-methyl-1,2,4-triazol-3-yl)cyclobutyl]pyrimidin-2-yl]-6-{[(3S)-3-methylpiperidin-1-yl]methyl}-4-(trifluoromethyl)-3H-isoindol-1-one] has an IC50 of 100 to 1000 nM.
CCNc1cc(C(CO)(CCl)Cc2nncn2C)cc(N2Cc3c(cc(CN4CCC[C@H](C)C4)cc3C(F)(F)F)C2=O)n1 (stereo partly drawn) [Compound 187, 2-(4-(1-chloro-3-hydroxy-2-((4-methyl-4H-1,2,4-triazol-3-yl)methyl)propan-2-yl)-6-(ethylamino)pyridin-2-yl)-6-(((S)-3-methylpiperidin-1-yl)methyl)-4-(trifluoromethyl)isoindolin-1-one; hydrochloric acid] was tested, and the IC50 was 20 to 100 nM.
Molecule CCSc1cc(C2(Cc3nncn3C)COC2)cc(N2Cc3c(C(N)=O)cc(CN4CCC[C@H](C)C4)cc3C2=O)n1 [Compound 145, 2-[6-(ethylsulfanyl)-4-{3-[(4-methyl-1,2,4-triazol-3-yl)methyl]oxetan-3-yl}pyridin-2-yl]-6-{[(3S)-3-methylpiperidin-1-yl]methyl}-1-oxo-3H-isoindole-4-carboxamide] has an IC50 of 5.01 to 20 nM.
Work on Cn1cnnc1CC1(c2cc(NCCC#N)nc(N3Cc4c(cc(CN5CCC6(CC5)CC6CO)cc4C(F)(F)F)C3=O)c2)COC1 (centres unmarked) [Compound 160, 3-{[6-(6-{[1-(hydroxymethyl)-6-azaspiro[2.5]octan-6-yl]methyl}-1-oxo-4-(trifluoromethyl)-3H-isoindol-2-yl)-4-{3-[(4-methyl-1,2,4-triazol-3-yl)methyl]oxetan-3-yl}pyridin-2-yl]amino}propanenitrile] yielded an IC50 of 1 to 5 nM.
Cn1cnnc1CC1(c2cc(NCCC#N)nc(N3Cc4c(cc(CN5CCC(O)(C6CC6)CC5)cc4C(F)(F)F)C3=O)c2)COC1 [Compound 155, 3-[(6-{6-[(4-cyclopropyl-4-hydroxypiperidin-1-yl)methyl]-1-oxo-4-(trifluoromethyl)-3H-isoindol-2-yl}-4-{3-[(4-methyl-1,2,4-triazol-3-yl)methyl]oxetan-3-yl}pyridin-2-yl)amino]propanenitrile] gave an IC50 of 1 to 5 nM.
C[C@H]1CCCN(Cc2cc(C=O)c3c(c2)C(=O)N(c2cc(C4(Cc5nncn5C)COC4)cc(NCCC#N)n2)C3)C1 [Compound 177, 3-{[6-(4-formyl-6-{[(3S)-3-methylpiperidin-1-yl]methyl}-1-oxo-3H-isoindol-2-yl)-4-{3-[(4-methyl-1,2,4-triazol-3-yl)methyl]oxetan-3-yl}pyridin-2-yl]amino}propanenitrile] was tested, and the IC50 was 1 to 5 nM.
C[C@H]1CCCN(Cc2cc3c(c(C(F)(F)F)c2)CN(c2cc(C4(Cc5nncn5C)COC4)cc(NCCCC#N)n2)C3=O)C1 [Compound 143, 4-[(4-{3-[(4-methyl-1,2,4-triazol-3-yl)methyl]oxetan-3-yl}-6-(6-{[(3S)-3-methylpiperidin-1-yl]methyl}-1-oxo-4-(trifluoromethyl)-3H-isoindol-2-yl)pyridin-2-yl)amino]butanenitrile; trifluoroacetic acid] showed an IC50 of 1 to 5 nM.
Molecule Cn1cnnc1CC1(c2cc(NCCC#N)nc(N3Cc4c(cc(CN5CCC6CC(O)CCC6C5)cc4C(F)(F)F)C3=O)c2)COC1 (centres unmarked) [Compound 183, 3-((6-(6-((6-hydroxyoctahydroisoquinolin-2 (1H)-yl)methyl)-1-oxo-4-(trifluoromethyl)isoindolin-2-yl)-4-(3-((4-methyl-4H-1,2,4-triazol-3-yl)methyl)oxetan-3-yl)pyridin-2-yl)amino)propanenitrile; trifluoroacetic acid] has an IC50 of 100 to 1000 nM.
Cn1cnnc1CC1(c2cc(NCCC#N)nc(N3Cc4c(cc(CN5CCc6ccc(O)cc6C5)cc4C(F)(F)F)C3=O)c2)COC1 [Compound 185, 3-((6-(6-((7-hydroxy-3,4-dihydroisoquinolin-2 (1H)-yl)methyl)-1-oxo-4-(trifluoromethyl)isoindolin-2-yl)-4-(3-((4-methyl-4H-1,2,4-triazol-3-yl)methyl)oxetan-3-yl)pyridin-2-yl)amino)propanenitrile; trifluoroacetic acid] was tested, and the IC50 was 5.01 to 20 nM.
